Assay results taken from US20210213176A1, “CHEMICAL VAPOR DEPOSITION OF POLYMER COATINGS FOR CONTROLLED DRUG RELEASE, ASSEMBLIES CONTAINING SAME, AND METHODS OF PRODUCTION AND USE THEREOF” (The Board of Regents for the Oklahoma Agricultural and …, priority 2020, published 2021).

What was measured:
[1] = system: human smooth muscle cells; conditions: 2.5 μM atorvastatin in medium (Dubuis et al., 2013); cited from earlier work
[2] = system: Human coronary artery smooth muscle cells (HCASMC); test: MTT cell metabolism assay on nanocoated devices; conditions: PDE31 coated, dose densities up to 100 μg/cm^2
smooth muscle cells = conditions: atorvastatin concentration as low as 0.1 μM (Petersen et al., 2013; Baetta et al., 1997); cited from earlier work

## CC(C)c1c(C(=O)Nc2ccccc2)c(-c2ccccc2)c(-c2ccc(F)cc2)n1CC[C@@H](O)C[C@@H](O)CC(=O)[O-].CC(C)c1c(C(=O)Nc2ccccc2)c(-c2ccccc2)c(-c2ccc(F)cc2)n1CC[C@@H](O)C[C@@H](O)CC(=O)[O-].[Ca+2] [atorvastatin, Atorvastatin calcium]
[1]
  viability of human smooth muscle cells: does not suppress the viability
[2]
  MTT activity of HCASMC with atorvastatin release: no significant difference
Smooth muscle cells
  growth of smooth muscle cells: effective in suppressing the growth
